Results from the supplement of paper PMC10307832.

Columns and labels:
Assay in all cases: relative viability (nuclei count vs DMSO), 5 days (fraction); higher = more cells survive
EKVX = test system: EKVX
How it was run: (§1)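 Relative viability equals treated-well nuclei counts divided by vehicle-well nuclei counts. Counts came from 4× images of lung cancer cell lines grown in 1536-well plates for 5 days after pin-tool dosing on the day after seeding. Dosing used one drug alone or a fixed anchor-drug dose plus five library-drug doses (not always all listed) in √10 steps, and values are medians of duplicate plates.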

NCI-H1395 = test system: NCI-H1395
How it was run: as §1

NCI-H2023 = test system: NCI-H2023
How it was run: as §1

NCI-H2342 = test system: NCI-H2342
How it was run: as §1

NCI-H358 = test system: NCI-H358
How it was run: as §1

NCI-H460 = test system: NCI-H460
How it was run: as §1

NCI-H1975 = test system: NCI-H1975
How it was run: as §1

NCI-H1563 = test system: NCI-H1563
How it was run: as §1

CAL-12T = test system: CAL-12T
How it was run: as §1

LCLC-103H = test system: LCLC-103H
How it was run: as §1

NCI-H1755 = test system: NCI-H1755
How it was run: as §1

HCC-366 = test system: HCC-366
How it was run: as §1

NCI-H1734 = test system: NCI-H1734
How it was run: as §1

HCC-15 = test system: HCC-15
How it was run: as §1

LOU-NH91 = test system: LOU-NH91
How it was run: as §1

NCI-H838 = test system: NCI-H838
How it was run: as §1

NCI-H2085 = test system: NCI-H2085
How it was run: as §1

NCI-H1651 = test system: NCI-H1651
How it was run: as §1

NCI-H1650 = test system: NCI-H1650
How it was run: as §1

NCI-H1437 = test system: NCI-H1437
How it was run: as §1

BEN = test system: BEN
How it was run: as §1

NCI-H1355 = test system: NCI-H1355
How it was run: as §1

NCI-H441 = test system: NCI-H441
How it was run: as §1

C[C@@H]1CN(CC(=O)Nc2ccc3c(c2)Cc2cccc(-c4cc(=O)cc(N5CCOCC5)o4)c2S3)C[C@H](C)O1 + COc1cc2c(Oc3ccc(NC(=O)C4(C(=O)Nc5ccc(F)cc5)CC4)cc3F)ccnc2cc1OCCCN1CCOCC1 [Foretinib] (partner 0.25 µM)
relative viability (EKVX; first compound 0.04 µM): 0.947
relative viability (EKVX; first compound 0.1265 µM): 1.16
relative viability (EKVX; first compound 0.4 µM): 0.927
relative viability (EKVX; first compound 4 µM): 0.76
relative viability (NCI-H1395; first compound 0.04 µM): 1.06
relative viability (NCI-H1395; first compound 0.1265 µM): 1.07
relative viability (NCI-H1395; first compound 0.4 µM): 0.982
relative viability (NCI-H1395; first compound 4 µM): 0.866
relative viability (NCI-H2023; first compound 0.04 µM): 0.732
relative viability (NCI-H2023; first compound 0.1265 µM): 0.915
relative viability (NCI-H2023; first compound 0.4 µM): 0.731
relative viability (NCI-H2023; first compound 4 µM): 0.666
relative viability (NCI-H2342; first compound 0.04 µM): 0.959
relative viability (NCI-H2342; first compound 0.1265 µM): 0.95
relative viability (NCI-H2342; first compound 0.4 µM): 0.973
relative viability (NCI-H2342; first compound 4 µM): 0.908
relative viability (NCI-H358; first compound 0.04 µM): 0.547
relative viability (NCI-H358; first compound 0.1265 µM): 0.677
relative viability (NCI-H358; first compound 0.4 µM): 0.682
relative viability (NCI-H358; first compound 4 µM): 0.4
relative viability (NCI-H460; first compound 0.04 µM): 0.898
relative viability (NCI-H460; first compound 0.1265 µM): 1.02
relative viability (NCI-H460; first compound 0.4 µM): 1.1
relative viability (NCI-H460; first compound 4 µM): 0.862
relative viability (NCI-H1975; first compound 0.04 µM): 0.978
relative viability (NCI-H1975; first compound 0.1265 µM): 0.782
relative viability (NCI-H1975; first compound 0.4 µM): 0.996
relative viability (NCI-H1975; first compound 4 µM): 0.765
relative viability (NCI-H1563; first compound 0.04 µM): 0.831
relative viability (NCI-H1563; first compound 0.1265 µM): 0.894
relative viability (NCI-H1563; first compound 0.4 µM): 0.908
relative viability (NCI-H1563; first compound 4 µM): 0.788
relative viability (CAL-12T; first compound 0.04 µM): 1.13
relative viability (CAL-12T; first compound 0.1265 µM): 1.06
relative viability (CAL-12T; first compound 0.4 µM): 1.01
relative viability (CAL-12T; first compound 4 µM): 0.764
relative viability (LCLC-103H; first compound 0.04 µM): 0.777
relative viability (LCLC-103H; first compound 0.1265 µM): 0.671
relative viability (LCLC-103H; first compound 0.4 µM): 0.671
relative viability (LCLC-103H; first compound 4 µM): 0.608
relative viability (NCI-H1755; first compound 0.04 µM): 0.914
relative viability (NCI-H1755; first compound 0.1265 µM): 0.887
relative viability (NCI-H1755; first compound 0.4 µM): 0.875
relative viability (NCI-H1755; first compound 4 µM): 0.798
relative viability (HCC-366; first compound 0.04 µM): 0.922
relative viability (HCC-366; first compound 0.1265 µM): 0.929
relative viability (HCC-366; first compound 0.4 µM): 1.1
relative viability (HCC-366; first compound 4 µM): 0.913
relative viability (NCI-H1734; first compound 0.04 µM): 0.881
relative viability (NCI-H1734; first compound 0.1265 µM): 0.851
relative viability (NCI-H1734; first compound 0.4 µM): 0.789
relative viability (NCI-H1734; first compound 4 µM): 0.976
relative viability (HCC-15; first compound 0.04 µM): 1.05
relative viability (HCC-15; first compound 0.1265 µM): 1.06
relative viability (HCC-15; first compound 0.4 µM): 1.02
relative viability (HCC-15; first compound 4 µM): 0.73
relative viability (LOU-NH91; first compound 0.04 µM): 1
relative viability (LOU-NH91; first compound 0.1265 µM): 0.96
relative viability (LOU-NH91; first compound 0.4 µM): 0.943
relative viability (LOU-NH91; first compound 4 µM): 0.897
relative viability (NCI-H838; first compound 0.04 µM): 0.871
relative viability (NCI-H838; first compound 0.1265 µM): 0.952
relative viability (NCI-H838; first compound 0.4 µM): 0.969
relative viability (NCI-H838; first compound 4 µM): 0.723
relative viability (NCI-H2085; first compound 0.04 µM): 1.15
relative viability (NCI-H2085; first compound 0.1265 µM): 0.83
relative viability (NCI-H2085; first compound 0.4 µM): 1.03
relative viability (NCI-H2085; first compound 4 µM): 0.745
relative viability (NCI-H1651; first compound 0.04 µM): 0.924
relative viability (NCI-H1651; first compound 0.1265 µM): 1.14
relative viability (NCI-H1651; first compound 0.4 µM): 0.96
relative viability (NCI-H1651; first compound 4 µM): 0.679
relative viability (NCI-H1650; first compound 0.04 µM): 1.07
relative viability (NCI-H1650; first compound 0.1265 µM): 1.14
relative viability (NCI-H1650; first compound 0.4 µM): 1.04
relative viability (NCI-H1650; first compound 4 µM): 0.678
relative viability (NCI-H1437; first compound 0.04 µM): 1.25
relative viability (NCI-H1437; first compound 0.1265 µM): 1.26
relative viability (NCI-H1437; first compound 0.4 µM): 1.29
relative viability (NCI-H1437; first compound 4 µM): 0.957
relative viability (BEN; first compound 0.04 µM): 0.615
relative viability (BEN; first compound 0.1265 µM): 0.552
relative viability (BEN; first compound 0.4 µM): 0.593
relative viability (BEN; first compound 4 µM): 0.623
relative viability (NCI-H1355; first compound 0.04 µM): 0.95
relative viability (NCI-H1355; first compound 0.1265 µM): 0.964
relative viability (NCI-H1355; first compound 0.4 µM): 0.951
relative viability (NCI-H1355; first compound 4 µM): 0.858
relative viability (NCI-H441; first compound 0.04 µM): 0.925
relative viability (NCI-H441; first compound 0.1265 µM): 0.978
relative viability (NCI-H441; first compound 0.4 µM): 0.911
relative viability (NCI-H441; first compound 4 µM): 0.934
